The values below come from patent US20150285812A1, “Fluorescence-Labelled Fatty Acids and Uses Thereof” (SANOFI, priority 2012, published 2015).

Data set [1] in a line: log D7.4 determination by RP-HPLC, similar to the water/octanol partition coefficient method. The format is physicochemical. Particulars: pH 7.4, RP-HPLC C18, range −1 to +6. Here is the method: log D7.4 values were determined by a method similar to the partition coefficient method in a water/octanol mixture and were carried out on an RP-HPLC from Waters Alliance (2795) having a C18 column (2×20 mm) with a gradient of morpholinesulfonic acid buffer (pH 7.4) and acetonitrile. The range was between −1 ([…]) to +6 (lipophilic).

Data set [2] has as its target T1, HSA (Homo sapiens, UniProt P02768).
T1 construct: purchased Sigma Aldrich A1887
Description: Fluorescence of NBD and dansyl dyes with increasing HSA (FRET effect, emission maxima). The format is binding. Particulars: for change in fluorescence intensity with increasing HSA concentration: HSA 1.56 to 200 μM, pH 7.4. How it is done:
Absorption and fluorescence of fluorescence-labelled derivatives and HSA were carried out in a Varioskan™ microplate reader (Thermo Electron Corporation). 96 well (Costar, half area, flat bottom) microplates were used for absorption measurements and 384 well (Greiner Bio One, small volume, black) microplates from Greiner Bio One were used for fluorescence measurements. All measurements were carried out at pH 7.4 and room temperature.
5.00 ml of a 400 μM solution were prepared from the HSA stock solution. From this solution a geometric dilution series with 7 dilution steps, a dilution factor of 0.5 and a final volume of each concentration of 2.5 ml were prepared.
Defined concentrations of the fluorescence-labelled compounds were selected from the preceding experiment without HSA above and double-concentrated solutions thereof were prepared to take into account the later 1:1 dilution. For each fluorescence-labelled compound (12-17; 19-25) 1.00 ml of these double-concentrations was prepared. 50 μl of the dye solutions were introduced into a 96 well microplate and 50 μl each of the HSA dilution series were added. By mixing the solutions the concentrations of dye derivatives and the HSA solution were halved. The measurements of the absorption and fluorescence were carried out in analogy to the above experimental procedure without HSA.
In analogy to the absorption measurement the effect of HSA on the fluorescence of the dyes (12-17; 19-25) was determined. The same concentrations of NBD and dansyl dyes and the same concentration range for HSA as already described above were used.

Data set [3] deals with T1, HSA. Put plainly: Job plot of the fluorescence: stoichiometry of labelled fatty acids to HSA. Conditions: maximum in the curve or none. It is filed as binding. How it is done: The stoichiometry of NBD- and dansyl-labelled fatty acids bound to HSA was determined by Job plots, also called the “method of continuous variability” as different mole fractions of the respective binding partners are mixed with one another and then measured spectroscopically. Solutions of equimolar concentrations of HSA and dye were mixed such that the mole fractions of the substances were varied but the total molarity of the sample solution stayed constant. For short NBD derivatives C2 to C6 (12-14) no binding to HSA was confirmed, whereas binding ratios for long NBD derivatives C8 to C12 (15-17) to HSA were 1:1. For short dansyl derivatives C2 to C8 (19-22) binding ratios for HSA were 2:1, whereas the long dansyl derivatives C10 and C12 (23-24) bound to HSA in the ratio of 4:1. The finding that even dansyl C2 (19) was bound to HSA led to the question as to what extent the dansyl label itself is recognized by HSA. Because even dansyl methylamide (25) bound to HSA, even though it lacks a carboxyl group, it seems that the dye label could also bind to HSA.
For the Job plot the dye and HSA solutions were employed in equimolar amounts. 10.00 ml of 100 μM HSA solution and in each case 2.00 ml of a 100 μM dye solution (12-17; 19-25) were prepared from the above stock solutions. For the Job plot method the dye solutions were mixed with the HSA solution in different ratios as described below in Table 8. […] According to the same dilution scheme the dye solutions were also mixed with DPBS buffer for measuring the blank values of the fluorescence-labelled derivatives (see K. C. Ingham, Analytical Biochemistry 68 (1975) 660-663). […] Absorption was not measured. A fluorescence measurement without a wavelength scan was also carried out in analogy to the above experiment without HSA.
For NBD derivatives (12-17) and HSA 100 μM solutions were used. […] In total 11 solutions per dye derivative were prepared for fluorescence measurement by mixing the two binding partners. […] The fluorescence intensities were plotted against the mole fractions of the binding partners. […]

Data set [4] concerns the target T1, HSA. Put plainly: Displacement of NBD derivatives on HSA by natural fatty acids C6 to C16 (fluorescence). The format is binding. Set-up: key to displacement of NBD C8 (15) bound to HSA / displacement of NBD C10 (16) bound to HSA / displacement of NBD C12 (17) bound to HSA: + stands for displacement; − for no displacement. Conditions: for relative binding affinity of the NBD dye for HSA: ranking among NBD C8, C10 and C12 from the competition experiments. Here is the method:
Dilution series for competition experiments with the fatty acids C6 to C16 were diluted with phosphate-buffered saline solution (DPBS buffer). Geometric dilution series of each fatty acid were prepared in 384 well microplates with a starting concentration of 2500 μM and a dilution factor of 0.33 and also 9 dilution steps. The final volume of each concentration was 80 μl. The plated-out fatty acids were stored in the deep freeze (−25° C.) until use.
For displacement experiments 2.50 ml of a 25 μM HSA solution were used per dye derivative. Due to the subsequent dilution steps the HSA concentration was doubled twice such that 2.50 ml of […] solution were prepared.
The dye concentrations were also doubled twice by the following dilution steps. 2.50 ml of each dye solution were needed. 2.10 ml of the respective dye solution were then mixed with 2.10 ml of the 100 μM HSA solution. The respective concentrations of the solutions halve here once. 50 μl of the mixture per well were introduced into a 96 well microplate.
The fatty acid microplates were brought to room temperature and 50 μl each of the dilution series were pipetted into the HSA-dye mixture. The concentrations of all solution constituents were thereby halved once again. In analogy to the experiments measuring the fluorescence of the fluorescence-labelled derivatives without HSA above, the solutions were pipetted from the 96 well microplate into a 384 well microplate. Absorption was not measured. The fluorescence measurement without a wavelength scan was carried out in analogy to the above-referenced experiment.
A concentration of 25 μM and a binding ratio of the NBD derivatives to HSA of 1:1 were employed for the displacement studies. For each dye derivative an NBD-HSA mixture with a concentration of 25 μM was prepared.

The mark [5] stands for this setting: dansyl compound 100 μM, λex = 330 nm.
[6] abbreviates: NBD-HSA mixture 25 μM, 1:1, competitor natural fatty acid.
Where [7] appears, read: NBD compound 25 μM, λex = 480 nm.
The mark [8] stands for this setting: NBD derivatives 25 μM, 480-550 nm.

T1 sequence (P02768 25-609): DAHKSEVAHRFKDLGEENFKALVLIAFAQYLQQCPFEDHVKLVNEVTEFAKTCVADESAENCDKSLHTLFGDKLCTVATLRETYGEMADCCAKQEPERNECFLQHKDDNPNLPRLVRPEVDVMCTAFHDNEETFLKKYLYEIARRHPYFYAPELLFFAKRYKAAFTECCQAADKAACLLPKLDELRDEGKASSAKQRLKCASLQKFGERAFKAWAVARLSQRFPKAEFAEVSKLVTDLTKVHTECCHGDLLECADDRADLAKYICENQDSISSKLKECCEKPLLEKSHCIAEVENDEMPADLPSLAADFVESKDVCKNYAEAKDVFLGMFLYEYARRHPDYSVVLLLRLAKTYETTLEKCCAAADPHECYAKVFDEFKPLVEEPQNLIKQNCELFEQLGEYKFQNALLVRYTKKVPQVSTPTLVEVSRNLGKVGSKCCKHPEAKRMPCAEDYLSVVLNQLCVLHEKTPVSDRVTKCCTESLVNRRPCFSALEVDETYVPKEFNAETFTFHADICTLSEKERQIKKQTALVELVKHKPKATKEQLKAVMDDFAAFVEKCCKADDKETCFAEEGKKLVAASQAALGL

Usually chromatographic logD stands for lipophilicity estimated from chromatographic retention. Take `CNS(=O)(=O)c1cccc2c(N(C)C)cccc12` [DMA (25), 5-Dimethylaminonaphthalene-1-sulfonic acid methylamide]: the chromatographic logD in data set [1] came to 2.76. Also, the “Δλ, shift of emission maximum λem without HSA vs with HSA” value at HSA [2] (setting [5]) is 80 nm. Moreover, at HSA [2] (dansyl derivatives 100 μM, 330-560 nm), the “change in fluorescence intensity with increasing HSA concentration” value (“change … with increasing HSA concentration” for short) was “smallest fluorescence increase”. The “binding to HSA (qualitative)” value is listed as “binds to HSA” on HSA [3] and “bound to HSA” on HSA [3] (listed as dansyl methylamide (25)).

On to `CCCCCC(=O)O` [FA C6, caproic acid], for which, on HSA [4] (setting [6]), the “displacement of NBD C8 (15) bound to HSA” value is given as “−”, the “displacement of NBD C8 (15) from HSA” value was “did not displace”, the “displacement of NBD C10 (16) bound to HSA” value was “−” and the “displacement of NBD C10 (16) from HSA” value is given as “not displaced”. In addition, the “displacement of NBD C12 (17) bound to HSA” value on HSA [4] (setting [6]) is recorded as “−”.

Regarding `CCCCCCCCCC(=O)O` [FA C10, capric acid], on HSA [4] (setting [6]), the “displacement of NBD C8 (15) bound to HSA” value is on record as “+”, the “displacement of NBD C8 (15) from HSA” value is given as “displaced”, the “displacement of NBD C10 (16) bound to HSA” value is “unclear” and the “displacement of NBD C12 (17) bound to HSA” value is recorded as “−”. In addition, at HSA [4] (setting [6]), the “displacement of NBD C12 (17) from HSA” value is reported as “no longer capable of displacing”.

In the case of `CCCCCCCCCCCC(=O)O` [FA C12, lauric acid], at HSA [4] (setting [6]), the “displacement of NBD C8 (15) bound to HSA” value is recorded as “+”, the “displacement of NBD C8 (15) from HSA” value is on record as “displaced”, the “displacement of NBD C10 (16) bound to HSA” value is listed as “+” and the “displacement of NBD C12 (17) bound to HSA” value is on record as “+”. The “displacement of NBD C12 (17) from HSA” value on HSA [4] (setting [6]) is recorded as “displaced”.

As for `CCCCCCCCCCCCCC(=O)O` [FA C14, myristic acid], at HSA [4] (setting [6]), the “displacement of NBD C8 (15) bound to HSA” value was “+”, the “displacement of NBD C8 (15) from HSA” value is reported as “displaced”, the “displacement of NBD C10 (16) bound to HSA” value was “+” and the “displacement of NBD C12 (17) bound to HSA” value is recorded as “+”.

Take `O=C(O)CNc1ccc([N+](=O)[O-])c2nonc12` [NBD C2 (12), 2-(7-nitrobenzo[1,2,5]oxadiazol-4-ylamino)ethanoic acid]: in data set [1], the “log D7.4” value is under −1. Besides, the “Δλ, shift of emission maximum λem without HSA vs with HSA” value on HSA [2] (setting [7]) is 0 nm. Moreover, at HSA [2] (setting [8]), the “change … with increasing HSA concentration” value is “no changes in fluorescence intensity”.

Consider `O=C(O)CCCNc1ccc([N+](=O)[O-])c2nonc12` [NBD C4 (13), 4-(7-Nitrobenzo[1,2,5]oxadiazol-4-ylamino)butanoic acid], for which, in data set [1], the “log D7.4” value is −0.46. Also, the “Δλ, shift of emission maximum λem without HSA vs with HSA” value at HSA [2] (setting [7]) is given as 2 nm. In addition, the “change … with increasing HSA concentration” value at HSA [2] (setting [8]) is “no changes in fluorescence intensity”.

`O=C(O)CCCCCNc1ccc([N+](=O)[O-])c2nonc12` [NBD C6 (14), 6-(7-Nitrobenzo[1,2,5]oxadiazol-4-ylamino)hexanoic acid] showed a chromatographic logD in data set [1] of 0.53. The “Δλ, shift of emission maximum λem without HSA vs with HSA” value on HSA [2] (setting [7]) was determined as 0 nm. Moreover, the “change … with increasing HSA concentration” value at HSA [2] (setting [8]) is “no changes in fluorescence intensity”.

In turn, `O=C(O)CCCCCCCNc1ccc([N+](=O)[O-])c2nonc12` [NBD C8 (15), 8-(7-Nitrobenzo[1,2,5]oxadiazol-4-ylamino)octanoic acid] had a chromatographic logD in data set [1] of 1.29. For the same molecule, the “Δλ, shift of emission maximum λem without HSA vs with HSA” value at HSA [2] (setting [7]) worked out at 10 nm. Moreover, at HSA [2] (setting [8]), the “change … with increasing HSA concentration” value is recorded as “greatest increase in fluorescence intensity”. In addition, the “relative binding affinity of the NBD dye for HSA” value on HSA [4] is given as “lowest affinity”.

As for `O=C(O)CCCCCCCCCNc1ccc([N+](=O)[O-])c2nonc12` [NBD C10 (16), 10-(7-Nitrobenzo[1,2,5]oxadiazol-4-ylamino)decanoic acid], in data set [1], the chromatographic logD is 2.03. In addition, on HSA [2] (setting [7]), the “Δλ, shift of emission maximum λem without HSA vs with HSA” value was 16 nm. Further, on HSA [2] (setting [8]), the “change … with increasing HSA concentration” value is given as “increase in fluorescence intensity”. The “relative binding affinity of the NBD dye for HSA” value at HSA [4] is recorded as “minimally smaller”; at HSA [4] (listed as NBD C10), “binding strength which lies between these two”.

`CN(C)c1cccc2c(S(=O)(=O)NCCCC(=O)O)cccc12` [dansyl C4 (20), 4-(5-Dimethylaminonaphthalene-1-sulfonylamino)butanoic acid] yielded a chromatographic logD in data set [1] of 1.21. For the same molecule, the “Δλ, shift of emission maximum λem without HSA vs with HSA” value at HSA [2] (setting [5]) is 88 nm.

Take `CN(C)c1cccc2c(S(=O)(=O)NCCCCCC(=O)O)cccc12` [dansyl C6 (21), 6-(5-Dimethylaminonaphthalene-1-sulfonylamino)hexanoic acid]: the chromatographic logD in data set [1] is 1.56. The “Δλ, shift of emission maximum λem without HSA vs with HSA” value at HSA [2] (setting [5]) worked out at 82 nm.

`CN(C)c1cccc2c(S(=O)(=O)NCCCCCCCC(=O)O)cccc12` [dansyl C8 (22), 8-(5-Dimethylaminonaphthalene-1-sulfonylamino)octanoic acid]: in data set [1], the chromatographic logD amounted to 2.1. In addition, the “Δλ, shift of emission maximum λem without HSA vs with HSA” value on HSA [2] (setting [5]) was determined as 74 nm.

For `CN(C)c1cccc2c(S(=O)(=O)NCCCCCCCCCC(=O)O)cccc12` [dansyl C10 (23), 10-(5-Dimethylaminonaphthalene-1-sulfonylamino)decanoic acid], the chromatographic logD in data set [1] was found to be 2.74. The “Δλ, shift of emission maximum λem without HSA vs with HSA” value at HSA [2] (setting [5]) is listed as 68 nm.

Take `CN(C)c1cccc2c(S(=O)(=O)NCCCCCCCCCCCC(=O)O)cccc12` [dansyl C12 (24), 12-(5-Dimethylaminonaphthalene-1-sulfonylamino)dodecanoic acid]: in data set [1], the chromatographic logD came to 3.49 and the “log D7.4” value is reported as 3.49. Moreover, on HSA [2] (setting [5]), the “Δλ, shift of emission maximum λem without HSA vs with HSA” value amounted to 66 nm.
